System: P. aeruginosa-induced lung injury
Assay: Pseudomonas aeruginosa-induced lung injury model
Assay type: in vivo
Settings: P. aeruginosa-treated mice; for MPO activity in lungs / apoptosis in lung tissue, TUNEL assay / collagen deposition (Masson's trichrome) / histological examination by H&E staining / immunohistochemistry of PAR / immunohistochemistry of nitrotyrosine / total BAL cellularity: 80 mg/kg os daily for 7 days; for lung edema, ratio of wet to dry weight of lung tissue: 80 mg/kg os daily, day 7, versus vehicle
Experimental: Lung edema at day 7 was measured as a ratio of wet to dry weight of excised lung tissue (Figure 7c).
Figure 7 Model of pulmonary fibrosis induced by P. aeruginosa. (a) Representative scheme of P. aeruginosa-induced lung injury model. (b) Total BAL cellularity of sham and Pseudomonas-treated mice (treated or not with 80 mg/kg doxophylline, d4-doxophylline, or d7-doxophylline). Results are reported as mean ± SEM of 10 mice for all groups. (c) Wet/dry lung weight ratio of sham and Pseudomonas-treated mice (treated or not with 80 mg/kg doxophylline, d4-doxophylline, or d7-doxophylline). Results are reported as mean ± SEM of 10 mice for all groups. (d) MPO activity in lungs of sham and Pseudomonas-treated mice (treated or not with 80 mg/kg doxophylline, d4-doxophylline, or d7-doxophylline). Results are reported as mean ± SEM of 10 mice for all groups. (e) Representative images of H&E staining of sham and Pseudomonas-treated mice (treated or not with 80 mg/doxophylline, d4-doxophylline, or d7-doxophylline). (f) Representative images of Masson’s trichrome staining of sham and Pseudomonas-treated mice (treated or not with 80 mg/doxophylline, d4-doxophylline and d7-doxophylline). p values: *, p < 0.05; **, p < 0.01; ***, p < 0.001; ****, p < 0.0001. […]
experiments were performed following the new regulations of USA (Animal Welfare Assurance No A5594 - 01), Europe (EU Directive 2010/63) , Italy (D.Lgs 2014/26) and the ARRIVE guidelines.
Tryptic soya agar beads laden with PA were produced as described. The mucoid PA strain NH57388A, was utilized. NH57388A-laden agar beads were prepared the day before inoculation, stored overnight at 4 °C, suspended in sterile PBS to deliver approximately 1 Å~ 106 CFU in 50 μ l per mouse. The inoculation dose […]
Trans-tracheal instillation of beads.
Mice were anaesthetized with inhaled isoflurane delivered initially in an anaesthetic box until unconscious, transferred to a surgical board and maintained under anesthesia with isoflurane via nose cone. The ventral cervical region was sterilized and 1-cm midline skin incision made just cranial to the thoracic inlet. The trachea was visualized by blunt dissection. Traction on the lower jaw was used to extend and straighten the trachea and a 22G intravenous catheter (BD Biosciences) used to cannulate the trachea. A 1-ml syringe, pre-filled with beads suspended in PBS, was attached to the cannuale. The cannulae and syringe were left in-situ for 5-seconds following depression of the plunger, followed by slow withdrawal. The animal was elevated head up to 45- […]
intrapulmonary bead instillation. If evidence of respiratory distress (rapid or labored respiration/ gasping) occurred during the procedure anesthesia was rapidly reversed and oxygen alone administered via nose cone.
The incision was closed with surgical staples. Buprenorphine analgesia was administered subcutaneously post-operatively. Animals were weighed and scored clinically daily. Experiments were terminated at 2-weeks post-inoculation via anesthetic overdose.
Mice were randomly allocated into the following groups. PSEUDOMONAS group: mice were subjected to pseudomonas-induced lung injury (n = 10); PSEUDOMONAS group + doxophylline: Identical to the pseudomonas + vehicle group but were treated daily with doxophylline xo (80 mg/kg os) 1 h after pseudomonas instillation and continued daily for 7 days (n = 10); PSEUDOMONAS group + d4- doxophylline:
Identical to the pseudomonas + vehicle group but were treated daily with doxophylline deuterated d4 (80 mg/kg os) 1 h after pseudomonas instillation and continued daily for 7 days ( n = 10); PSEUDOMONAS group + d7- doxophylline: Identical to the pseudomonas + vehicle group but were treated daily with doxophylline deuterated d7 (80 mg/kg os) 1 h after pseudomonas instillation and continued daily for 7 days (n = 10); SHAM group: mice will receive the vehicle administration daily for 7 days ([…]); SHAM + doxophylline group: […]

| Structure (SMILES) | MPO activity in lungs | apoptosis in lung tissue, TUNEL assay | collagen deposition (Masson's trichrome) | histological examination by H&E staining | immunohistochemistry of PAR | immunohistochemistry of nitrotyrosine | total BAL cellularity | lung edema, ratio of wet to dry weight of lung tissue |
| --- | --- | --- | --- | --- | --- | --- | --- | --- |
| [2H]C1([2H])OC(Cn2cnc3c2c(=O)n(C)c(=O)n3C)OC1([2H])[2H] [d4-doxophylline] | lesser nonsignificant effect | did not have any effect | lesser or no effect | reduction of the inflammatory interstitial infiltrate | lesser or no effect | lesser or no effect | increased total BAL cellularity | – |
| [2H]C1([2H])OC([2H])(C([2H])([2H])n2cnc3c2c(=O)n(C)c(=O)n3C)OC1([2H])[2H] [d7-doxophylline] | significantly reduced | reverted | effect | reduction of the inflammatory interstitial infiltrate | effect | effect | significantly reduced | considerably decreased |
| Cn1c(=O)c2c(ncn2CC2OCCO2)n(C)c1=O [doxophylline] | significantly reduced | reverted | effect | reduction of the inflammatory interstitial infiltrate | effect | effect | significantly reduced | considerably decreased |
